According to PMC9202851, “Antitubercular activity assessment of fluorinated chalcones, 2-aminopyridine-3-carbonitrile and 2-amino-4H-pyran-3-carbonitrile derivatives: In vitro, molecular docking and in-silico drug likeliness studies” (PLoS ONE, 2022):
In brackets after ≈: the same amount, converted by molar mass.

System: Mycobacterium tuberculosis H37RV
Assay: In vitro antitubercular activity by MABA (Alamar Blue)
Format: cell-based
Details: Mycobacterium tuberculosis H37RV, MABA, Middlebrook 7H9 broth, 37°C five days

Row | Structure (SMILES) | H37RV MIC
1 | N#Cc1c(-c2c[nH]c3ccccc23)cc(-c2ccc(OC(F)(F)F)cc2)nc1N [Compound 40] | ~ 8 µM

Same assay, conditions: Mycobacterium tuberculosis H37RV, MABA, Middlebrook 7H9 broth, 37°C five days; read-out: H37RV MIC

Row | Structure (SMILES) | MIC [µM]
2 | O=C(O)c1cn(C2CC2)c2cc(N3CCNCC3)c(F)cc2c1=O [Ciprofloxacin, reference compound] | 9 (≈ 2.98 µg/mL)
3 | N#Cc1c(-c2cccs2)cc(-c2ccc(C(F)(F)F)cc2)nc1N [Compound 26] | 33 (≈ 11.4 µg/mL)
4 | N#Cc1c(-c2cccs2)cc(-c2ccc(C(F)(F)F)cc2)nc1N [Compound 27] | 18 (≈ 6.22 µg/mL)
5 | N#Cc1c(-c2ccc[nH]2)cc(-c2ccc(C(F)(F)F)cc2)nc1N [Compound 30] | 17 (≈ 5.58 µg/mL)
6 | N#Cc1c(-c2c[nH]c3ccccc23)cc(-c2ccc(OC(F)(F)F)cc2)nc1N [Compound 33] | 30 (≈ 11.8 µg/mL)
7 | N#Cc1c(-c2cccs2)cc(-c2ccc(OC(F)(F)F)cc2)nc1N [Compound 36] | 31 (≈ 11.2 µg/mL)
8 | N#Cc1c(-c2c[nH]c3ccccc23)cc(-c2ccc(OC(F)(F)F)cc2)nc1N [Compound 40] | 8 (≈ 3.15 µg/mL)
9 | N#CC1=C(N)OC(c2ccc(C(F)(F)F)cc2)=CC1c1ccccc1Cl (centres unmarked) [Compound 41] | 17 (≈ 6.41 µg/mL)
10 | N#CC1=C(N)OC(c2ccc(C(F)(F)F)cc2)=CC1c1ccc[nH]1 (centres unmarked) [Compound 50] | 16 (≈ 5.3 µg/mL)
11 | N#CC1=C(N)OC(c2ccc(OC(F)(F)F)cc2)=CC1c1cccc(Cl)c1Cl (centres unmarked) [Compound 51] | 16 (≈ 6.84 µg/mL)
12 | N#CC1=C(N)OC(c2ccc(OC(F)(F)F)cc2)=CC1c1ccc[nH]1 (centres unmarked) [Compound 60] | 16 (≈ 5.56 µg/mL)
13 | NC(=O)c1cnccn1 [Pyrazinamide, reference compound] | 25 (≈ 3.08 µg/mL)
14 | [H]/N=C(/N)N[C@H]1[C@H](O)[C@@H](O)[C@H](O[C@@H]2O[C@@H](C)[C@](O)(C=O)[C@H]2O[C@@H]2O[C@@H](CO)[C@H](O)[C@@H](O)[C@@H]2NC)[C@@H](N/C(N)=N\[H])[C@@H]1O [Streptomycin, reference compound] | 11 (≈ 6.4 µg/mL)

Same assay, conditions: Mycobacterium tuberculosis, H37RV, 120 h, Mycobacterium tuberculosis H37RV, MABA, Middlebrook 7H9 broth, 37°C five days; read-out: H37RV MIC

Row | Structure (SMILES) | MIC [µM]
15 | O=C(O)c1cn(C2CC2)c2cc(N3CCNCC3)c(F)cc2c1=O [Ciprofloxacin, reference compound] | ~9 (≈ 2.98 µg/mL)
16 | O=C(/C=C/c1ccccc1Cl)c1ccc(C(F)(F)F)cc1 [Compound 1] | 40 (≈ 12.4 µg/mL)
17 | O=C(/C=C/c1cccc(Cl)c1)c1ccc(C(F)(F)F)cc1 [Compound 2] | 161 (≈ 50 µg/mL)
18 | O=C(/C=C/c1c[nH]c2ccccc12)c1ccc(C(F)(F)F)cc1 [Compound 3] | 145 (≈ 45.7 µg/mL)
19 | O=C(/C=C/c1ccccc1[N+](=O)[O-])c1ccc(C(F)(F)F)cc1 [Compound 4] | 156 (≈ 50.1 µg/mL)
20 | O=C(/C=C/c1cccc([N+](=O)[O-])c1)c1ccc(C(F)(F)F)cc1 [Compound 5] | 155 (≈ 49.8 µg/mL)
21 | O=C(/C=C/c1cccs1)c1ccc(C(F)(F)F)cc1 [Compound 6] | 156 (≈ 44 µg/mL)
22 | O=C(/C=C/c1ccc(Cl)cc1)c1ccc(C(F)(F)F)cc1 [Compound 8] | 188 (≈ 58.4 µg/mL)
23 | O=C(/C=C/c1ccc([N+](=O)[O-])cc1)c1ccc(C(F)(F)F)cc1 [Compound 9] | 189 (≈ 60.7 µg/mL)
24 | O=C(/C=C/c1ccc[nH]1)c1ccc(C(F)(F)F)cc1 [Compound 10] | 40 (≈ 10.6 µg/mL)
25 | O=C(/C=C/c1cccc(Cl)c1Cl)c1ccc(OC(F)(F)F)cc1 [Compound 11] | 153 (≈ 55.3 µg/mL)
26 | O=C(/C=C/c1cccc(Cl)c1)c1ccc(OC(F)(F)F)cc1 [Compound 12] | 153 (≈ 50 µg/mL)
27 | O=C(/C=C/c1c[nH]c2ccccc12)c1ccc(OC(F)(F)F)cc1 [Compound 13] | 138 (≈ 45.7 µg/mL)
28 | O=C(/C=C/c1ccccc1[N+](=O)[O-])c1ccc(OC(F)(F)F)cc1 [Compound 14] | 148 (≈ 49.9 µg/mL)
29 | O=C(/C=C/c1cccc([N+](=O)[O-])c1)c1ccc(OC(F)(F)F)cc1 [Compound 15] | 148 (≈ 49.9 µg/mL)
30 | O=C(/C=C/c1cccs1)c1ccc(OC(F)(F)F)cc1 [Compound 16] | 148 (≈ 44.1 µg/mL)
31 | O=C(/C=C/c1ccco1)c1ccc(OC(F)(F)F)cc1 [Compound 17] | 168 (≈ 47.4 µg/mL)
32 | O=C(/C=C/c1ccc(Cl)cc1)c1ccc(OC(F)(F)F)cc1 [Compound 18] | 177 (≈ 57.8 µg/mL)
33 | O=C(/C=C/c1ccc([N+](=O)[O-])cc1)c1ccc(OC(F)(F)F)cc1 [Compound 19] | 178 (≈ 60 µg/mL)

Row | Structure (SMILES) | MIC [µM]
34 | O=C(/C=C/c1ccc[nH]1)c1ccc(OC(F)(F)F)cc1 [Compound 20] | 38 (≈ 10.7 µg/mL)
35 | N#Cc1c(-c2cccc(Cl)c2Cl)cc(-c2ccc(C(F)(F)F)cc2)nc1N [Compound 21] | 33 (≈ 13.5 µg/mL)
36 | N#Cc1c(-c2cccc(Cl)c2)cc(-c2ccc(C(F)(F)F)cc2)nc1N [Compound 22] | 134 (≈ 50.1 µg/mL)
37 | N#Cc1c(-c2c[nH]c3ccccc23)cc(-c2ccc(C(F)(F)F)cc2)nc1N [Compound 23] | 31 (≈ 11.7 µg/mL)
38 | N#Cc1c(-c2ccccc2[N+](=O)[O-])cc(-c2ccc(C(F)(F)F)cc2)nc1N [Compound 24] | 33 (≈ 12.7 µg/mL)
39 | N#Cc1c(-c2cccc([N+](=O)[O-])c2)cc(-c2ccc(C(F)(F)F)cc2)nc1N [Compound 25] | 130 (≈ 50 µg/mL)
40 | N#Cc1c(-c2ccc(Cl)cc2)cc(-c2ccc(C(F)(F)F)cc2)nc1N [Compound 28] | 38 (≈ 14.2 µg/mL)
41 | N#Cc1c(-c2ccc([N+](=O)[O-])cc2)cc(-c2ccc(C(F)(F)F)cc2)nc1N [Compound 29] | 152 (≈ 58.4 µg/mL)
42 | N#Cc1c(-c2ccc[nH]2)cc(-c2ccc(C(F)(F)F)cc2)nc1N [Compound 30] | 16 to 18 (≈ 5.25 to 5.91 µg/mL)
43 | N#Cc1c(-c2cccc(Cl)c2Cl)cc(-c2ccc(OC(F)(F)F)cc2)nc1N [Compound 31] | 32 (≈ 13.6 µg/mL)
44 | N#Cc1c(-c2cccc(Cl)c2)cc(-c2ccc(OC(F)(F)F)cc2)nc1N [Compound 32] | 128 (≈ 49.9 µg/mL)
45 | N#Cc1c(-c2ccccc2[N+](=O)[O-])cc(-c2ccc(OC(F)(F)F)cc2)nc1N [Compound 34] | 31 (≈ 12.4 µg/mL)
46 | N#Cc1c(-c2cccc([N+](=O)[O-])c2)cc(-c2ccc(OC(F)(F)F)cc2)nc1N [Compound 35] | 125 (≈ 50 µg/mL)
47 | N#Cc1c(-c2cccs2)cc(-c2ccc(OC(F)(F)F)cc2)nc1N [Compound 37] | 17 (≈ 6.14 µg/mL)
48 | N#Cc1c(-c2ccc(Cl)cc2)cc(-c2ccc(OC(F)(F)F)cc2)nc1N [Compound 38] | 36 (≈ 14 µg/mL)
49 | N#Cc1c(-c2ccc([N+](=O)[O-])cc2)cc(-c2ccc(OC(F)(F)F)cc2)nc1N [Compound 39] | 145 (≈ 58 µg/mL)
50 | N#CC1=C(N)OC(c2ccc(C(F)(F)F)cc2)=CC1c1ccccc1Cl (centres unmarked) [Compound 41] | 16 to 18 (≈ 6.03 to 6.78 µg/mL)
51 | N#CC1=C(N)OC(c2ccc(C(F)(F)F)cc2)=CC1c1cccc(Cl)c1 (centres unmarked) [Compound 42] | 133 (≈ 50.1 µg/mL)
52 | N#CC1=C(N)OC(c2ccc(C(F)(F)F)cc2)=CC1c1c[nH]c2ccccc12 (centres unmarked) [Compound 43] | 30 (≈ 11.4 µg/mL)

Row | Structure (SMILES) | MIC [µM]
53 | N#CC1=C(N)OC(c2ccc(C(F)(F)F)cc2)=CC1c1ccccc1[N+](=O)[O-] (centres unmarked) [Compound 44] | 32 (≈ 12.4 µg/mL)
54 | N#CC1=C(N)OC(c2ccc(C(F)(F)F)cc2)=CC1c1cccc([N+](=O)[O-])c1 (centres unmarked) [Compound 45] | 129 (≈ 50 µg/mL)
55 | N#CC1=C(N)OC(c2ccc(C(F)(F)F)cc2)=CC1c1cccs1 (centres unmarked) [Compound 46] | 32 (≈ 11.1 µg/mL)
56 | N#CC1=C(N)OC(c2ccc(C(F)(F)F)cc2)=CC1c1ccco1 (centres unmarked) [Compound 47] | 36 (≈ 12 µg/mL)
57 | N#CC1=C(N)OC(c2ccc(C(F)(F)F)cc2)=CC1c1ccc(Cl)cc1 (centres unmarked) [Compound 48] | 38 (≈ 14.3 µg/mL)
58 | N#CC1=C(N)OC(c2ccc(C(F)(F)F)cc2)=CC1c1ccc([N+](=O)[O-])cc1 (centres unmarked) [Compound 49] | 151 (≈ 58.5 µg/mL)
59 | N#CC1=C(N)OC(c2ccc(C(F)(F)F)cc2)=CC1c1ccc[nH]1 (centres unmarked) [Compound 50] | 16 to 18 (≈ 5.3 to 5.96 µg/mL)
60 | N#CC1=C(N)OC(c2ccc(OC(F)(F)F)cc2)=CC1c1cccc(Cl)c1Cl (centres unmarked) [Compound 51] | 16 to 18 (≈ 6.84 to 7.69 µg/mL)
61 | N#CC1=C(N)OC(c2ccc(OC(F)(F)F)cc2)=CC1c1cccc(Cl)c1 (centres unmarked) [Compound 52] | 127 (≈ 49.9 µg/mL)
62 | N#CC1=C(N)OC(c2ccc(OC(F)(F)F)cc2)=CC1c1c[nH]c2ccccc12 (centres unmarked) [Compound 53] | 29 (≈ 11.5 µg/mL)
63 | N#CC1=C(N)OC(c2ccc(OC(F)(F)F)cc2)=CC1c1ccccc1[N+](=O)[O-] (centres unmarked) [Compound 54] | 31 (≈ 12.5 µg/mL)
64 | N#CC1=C(N)OC(c2ccc(OC(F)(F)F)cc2)=CC1c1cccc([N+](=O)[O-])c1 (centres unmarked) [Compound 55] | 124 (≈ 50 µg/mL)
65 | N#CC1=C(N)OC(c2ccc(OC(F)(F)F)cc2)=CC1c1cccs1 (centres unmarked) [Compound 56] | 31 (≈ 11.3 µg/mL)
66 | N#CC1=C(N)OC(c2ccc(OC(F)(F)F)cc2)=CC1c1ccco1 (centres unmarked) [Compound 57] | 34 (≈ 11.8 µg/mL)
67 | N#CC1=C(N)OC(c2ccc(OC(F)(F)F)cc2)=CC1c1ccc(Cl)cc1 (centres unmarked) [Compound 58] | 36 (≈ 14.1 µg/mL)
68 | N#CC1=C(N)OC(c2ccc(OC(F)(F)F)cc2)=CC1c1ccc([N+](=O)[O-])cc1 (centres unmarked) [Compound 59] | 144 (≈ 58.1 µg/mL)
69 | N#CC1=C(N)OC(c2ccc(OC(F)(F)F)cc2)=CC1c1ccc[nH]1 (centres unmarked) [Compound 60] | 16 to 18 (≈ 5.56 to 6.25 µg/mL)
70 | NC(=O)c1cnccn1 [Pyrazinamide, reference compound] | ~25 (≈ 3.08 µg/mL)
71 | [H]/N=C(/N)N[C@H]1[C@H](O)[C@@H](O)[C@H](O[C@@H]2O[C@@H](C)[C@](O)(C=O)[C@H]2O[C@@H]2O[C@@H](CO)[C@H](O)[C@@H](O)[C@@H]2NC)[C@@H](N/C(N)=N\[H])[C@@H]1O [Streptomycin, reference compound] | ~11 (≈ 6.4 µg/mL)

Same assay, conditions: Mycobacterium tuberculosis, H37RV, 120 h, read-out: H37RV MIC

Row | Structure (SMILES) | MIC [µM]
72 | O=C(/C=C/c1ccco1)c1ccc(C(F)(F)F)cc1 [Compound 7] | 177 (≈ 47.1 µg/mL)

Same assay, conditions: ratio of MIC, H37RV

Row | Structure (SMILES) | Potency relative to pyrazinamide [fold]
73 | N#Cc1c(-c2c[nH]c3ccccc23)cc(-c2ccc(OC(F)(F)F)cc2)nc1N [Compound 40] | 3

System: not listed separately
Assay: MTT cytotoxicity assay
Format: cell-based
Details: LO2 normal liver cells, human normal liver cells (L02), mean of three experiments

Row | Structure (SMILES) | IC50 [µg/mL]
74 | N#Cc1c(-c2c[nH]c3ccccc23)cc(-c2ccc(OC(F)(F)F)cc2)nc1N [Compound 40] | > 70
